Experimental data published in patent US20120122860A1, “SOLID FORMS OF SULFONAMIDES AND AMINO ACIDS” (Plexxikon, Inc., priority 2009, published 2012).

Experiments:
[1] = target: B-Raf (Homo sapiens, UniProt P15056); experiment: Kinase activity assay, B-Raf; assay type: biochemical; details: read-out: activity toward kinase B-Raf, IC50
[2] = target: B-Raf V600E (Homo sapiens, UniProt P15056, V600E); experiment: Kinase activity assay, B-Raf V600E; assay type: biochemical; details: read-out: activity toward kinase B-Raf V600E, IC50
[3] = target: Btk (Homo sapiens, UniProt Q06187); experiment: Kinase activity assay, Btk
[4] = target: Fms (Homo sapiens, UniProt P07333); experiment: Kinase activity assay, Fms
[5] = target: Kdr (Homo sapiens, UniProt P35968); experiment: Kinase activity assay, Kdr
[6] = target: Kit (Homo sapiens, UniProt P10721); experiment: Kinase activity assay, Kit
[7] = target: T1, TEC (Homo sapiens, UniProt P42680); experiment: Kinase activity assay, TEC
T1 sequence (P42680 1-631): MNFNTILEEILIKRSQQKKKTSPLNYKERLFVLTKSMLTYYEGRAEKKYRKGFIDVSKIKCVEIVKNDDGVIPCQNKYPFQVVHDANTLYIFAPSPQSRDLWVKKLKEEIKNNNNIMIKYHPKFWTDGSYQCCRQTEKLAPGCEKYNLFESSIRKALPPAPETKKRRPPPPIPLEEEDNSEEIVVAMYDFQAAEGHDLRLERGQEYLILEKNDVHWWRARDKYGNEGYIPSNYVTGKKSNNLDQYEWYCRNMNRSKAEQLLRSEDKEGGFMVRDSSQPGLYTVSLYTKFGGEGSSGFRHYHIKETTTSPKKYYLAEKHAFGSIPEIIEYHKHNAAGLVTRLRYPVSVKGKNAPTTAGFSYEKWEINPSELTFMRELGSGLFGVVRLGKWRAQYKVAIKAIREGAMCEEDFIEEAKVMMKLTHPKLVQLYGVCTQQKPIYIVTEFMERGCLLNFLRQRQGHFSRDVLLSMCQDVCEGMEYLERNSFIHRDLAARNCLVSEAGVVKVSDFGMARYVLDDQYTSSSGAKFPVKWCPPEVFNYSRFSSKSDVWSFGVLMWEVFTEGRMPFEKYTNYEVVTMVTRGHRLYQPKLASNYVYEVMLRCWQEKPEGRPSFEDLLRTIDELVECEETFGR

[8] = target: Flt1 (Homo sapiens, UniProt P17948); experiment: Kinase activity assay, Flt1
[9] = target: MAP4K4 (Homo sapiens, UniProt O95819); experiment: Kinase activity assay, MAP4K4
[10] = target: Src (Homo sapiens, UniProt P12931); experiment: Kinase activity assay, Src
[11] = target: C-Raf (Homo sapiens, UniProt P04049); experiment: Kinase activity assay, C-Raf
[12] = target: T2, A-Raf (Homo sapiens, UniProt P10398); experiment: Kinase activity assay, A-Raf
T2 sequence (P10398 1-606): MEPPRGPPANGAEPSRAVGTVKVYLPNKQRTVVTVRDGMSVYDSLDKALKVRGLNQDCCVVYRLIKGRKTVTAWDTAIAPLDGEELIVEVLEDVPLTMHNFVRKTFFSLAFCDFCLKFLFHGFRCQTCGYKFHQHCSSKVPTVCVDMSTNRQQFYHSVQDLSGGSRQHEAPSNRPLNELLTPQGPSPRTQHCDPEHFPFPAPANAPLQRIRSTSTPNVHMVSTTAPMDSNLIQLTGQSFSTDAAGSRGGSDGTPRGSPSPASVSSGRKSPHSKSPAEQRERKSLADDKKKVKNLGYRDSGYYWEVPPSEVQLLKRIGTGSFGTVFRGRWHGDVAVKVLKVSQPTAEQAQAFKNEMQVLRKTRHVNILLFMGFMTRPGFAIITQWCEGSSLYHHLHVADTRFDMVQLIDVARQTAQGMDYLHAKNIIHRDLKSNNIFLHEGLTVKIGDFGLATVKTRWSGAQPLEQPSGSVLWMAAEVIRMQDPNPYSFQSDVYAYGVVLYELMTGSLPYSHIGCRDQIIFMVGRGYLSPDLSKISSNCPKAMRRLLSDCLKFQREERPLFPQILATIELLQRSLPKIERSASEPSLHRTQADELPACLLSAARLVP

Measured: IC50

Sequence of Fms (P07333 20-972): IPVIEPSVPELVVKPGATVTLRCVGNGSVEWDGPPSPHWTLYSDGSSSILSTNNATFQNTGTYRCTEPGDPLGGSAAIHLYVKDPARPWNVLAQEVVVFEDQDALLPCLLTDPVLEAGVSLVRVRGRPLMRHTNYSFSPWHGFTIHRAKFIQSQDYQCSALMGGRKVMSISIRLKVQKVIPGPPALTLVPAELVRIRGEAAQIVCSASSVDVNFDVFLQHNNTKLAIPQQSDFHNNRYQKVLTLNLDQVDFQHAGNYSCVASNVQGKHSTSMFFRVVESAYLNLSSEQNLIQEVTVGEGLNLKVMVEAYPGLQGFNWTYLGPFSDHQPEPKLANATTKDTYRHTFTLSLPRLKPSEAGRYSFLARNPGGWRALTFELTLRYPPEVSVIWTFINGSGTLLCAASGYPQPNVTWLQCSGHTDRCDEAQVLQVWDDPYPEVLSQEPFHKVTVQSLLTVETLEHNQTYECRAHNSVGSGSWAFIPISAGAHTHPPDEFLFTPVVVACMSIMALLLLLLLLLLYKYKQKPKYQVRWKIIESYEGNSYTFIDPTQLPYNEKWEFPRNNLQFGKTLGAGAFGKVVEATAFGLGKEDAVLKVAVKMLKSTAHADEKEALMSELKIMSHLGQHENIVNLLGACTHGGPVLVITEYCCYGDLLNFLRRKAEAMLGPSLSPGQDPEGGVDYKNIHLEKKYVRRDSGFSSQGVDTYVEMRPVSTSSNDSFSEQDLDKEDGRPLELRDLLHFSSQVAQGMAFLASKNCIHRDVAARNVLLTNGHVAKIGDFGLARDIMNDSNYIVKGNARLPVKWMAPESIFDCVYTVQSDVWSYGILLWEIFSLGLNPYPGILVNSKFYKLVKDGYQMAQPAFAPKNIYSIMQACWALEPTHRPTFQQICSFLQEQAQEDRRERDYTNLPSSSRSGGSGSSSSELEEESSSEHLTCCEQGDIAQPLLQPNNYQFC
Sequence of C-Raf (P04049 whole entry): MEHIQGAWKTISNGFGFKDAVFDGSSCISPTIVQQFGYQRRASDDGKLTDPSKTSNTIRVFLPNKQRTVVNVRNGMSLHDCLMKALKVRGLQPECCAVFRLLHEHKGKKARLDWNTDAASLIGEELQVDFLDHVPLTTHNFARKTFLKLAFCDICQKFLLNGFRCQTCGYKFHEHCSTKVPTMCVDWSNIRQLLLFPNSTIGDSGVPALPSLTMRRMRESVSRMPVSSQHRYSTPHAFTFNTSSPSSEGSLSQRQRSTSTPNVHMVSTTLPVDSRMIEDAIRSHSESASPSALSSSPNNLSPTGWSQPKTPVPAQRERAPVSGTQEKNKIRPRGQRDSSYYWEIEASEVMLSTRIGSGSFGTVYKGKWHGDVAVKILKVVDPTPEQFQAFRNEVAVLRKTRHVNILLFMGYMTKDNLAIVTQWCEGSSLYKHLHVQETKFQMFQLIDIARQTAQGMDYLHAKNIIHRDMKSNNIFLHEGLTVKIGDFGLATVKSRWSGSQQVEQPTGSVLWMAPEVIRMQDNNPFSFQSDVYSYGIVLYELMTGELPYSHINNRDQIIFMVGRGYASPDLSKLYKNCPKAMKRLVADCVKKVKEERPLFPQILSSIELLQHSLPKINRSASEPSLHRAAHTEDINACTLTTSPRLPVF
Sequence of Flt1 (P17948 27-1338): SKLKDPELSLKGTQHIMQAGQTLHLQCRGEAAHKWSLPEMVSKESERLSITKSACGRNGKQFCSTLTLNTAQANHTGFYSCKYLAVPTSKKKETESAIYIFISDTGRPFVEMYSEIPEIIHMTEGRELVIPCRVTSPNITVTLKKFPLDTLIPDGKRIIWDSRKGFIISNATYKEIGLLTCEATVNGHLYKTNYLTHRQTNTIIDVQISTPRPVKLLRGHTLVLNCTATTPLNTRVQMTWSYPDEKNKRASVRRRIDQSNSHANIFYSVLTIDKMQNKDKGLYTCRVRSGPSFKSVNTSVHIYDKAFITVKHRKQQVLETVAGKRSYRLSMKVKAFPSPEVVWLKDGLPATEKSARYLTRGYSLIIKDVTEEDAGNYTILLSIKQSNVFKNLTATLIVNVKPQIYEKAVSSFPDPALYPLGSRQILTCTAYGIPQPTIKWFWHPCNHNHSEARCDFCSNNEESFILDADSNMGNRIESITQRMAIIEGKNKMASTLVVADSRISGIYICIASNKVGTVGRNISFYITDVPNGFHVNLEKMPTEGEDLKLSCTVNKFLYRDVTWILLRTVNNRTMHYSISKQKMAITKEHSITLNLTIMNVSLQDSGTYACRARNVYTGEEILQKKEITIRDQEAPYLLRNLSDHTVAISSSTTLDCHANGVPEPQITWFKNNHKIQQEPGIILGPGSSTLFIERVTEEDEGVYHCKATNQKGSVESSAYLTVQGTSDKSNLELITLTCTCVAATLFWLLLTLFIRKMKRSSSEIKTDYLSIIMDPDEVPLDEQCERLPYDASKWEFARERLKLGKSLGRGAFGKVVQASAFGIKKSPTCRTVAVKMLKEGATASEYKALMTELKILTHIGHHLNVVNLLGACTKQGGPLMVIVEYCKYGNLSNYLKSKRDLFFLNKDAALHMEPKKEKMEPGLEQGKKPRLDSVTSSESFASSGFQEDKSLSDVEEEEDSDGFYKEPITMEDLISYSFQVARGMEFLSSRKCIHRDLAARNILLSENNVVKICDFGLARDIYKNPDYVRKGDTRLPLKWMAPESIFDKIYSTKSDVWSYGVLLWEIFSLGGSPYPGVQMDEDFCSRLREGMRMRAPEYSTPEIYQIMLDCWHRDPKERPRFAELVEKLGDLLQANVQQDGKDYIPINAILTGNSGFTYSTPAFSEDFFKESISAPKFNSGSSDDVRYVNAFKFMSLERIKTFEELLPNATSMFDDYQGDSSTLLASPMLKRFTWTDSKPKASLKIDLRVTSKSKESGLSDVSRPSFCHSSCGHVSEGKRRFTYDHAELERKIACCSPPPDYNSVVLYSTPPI
Sequence of B-Raf (P15056 whole entry): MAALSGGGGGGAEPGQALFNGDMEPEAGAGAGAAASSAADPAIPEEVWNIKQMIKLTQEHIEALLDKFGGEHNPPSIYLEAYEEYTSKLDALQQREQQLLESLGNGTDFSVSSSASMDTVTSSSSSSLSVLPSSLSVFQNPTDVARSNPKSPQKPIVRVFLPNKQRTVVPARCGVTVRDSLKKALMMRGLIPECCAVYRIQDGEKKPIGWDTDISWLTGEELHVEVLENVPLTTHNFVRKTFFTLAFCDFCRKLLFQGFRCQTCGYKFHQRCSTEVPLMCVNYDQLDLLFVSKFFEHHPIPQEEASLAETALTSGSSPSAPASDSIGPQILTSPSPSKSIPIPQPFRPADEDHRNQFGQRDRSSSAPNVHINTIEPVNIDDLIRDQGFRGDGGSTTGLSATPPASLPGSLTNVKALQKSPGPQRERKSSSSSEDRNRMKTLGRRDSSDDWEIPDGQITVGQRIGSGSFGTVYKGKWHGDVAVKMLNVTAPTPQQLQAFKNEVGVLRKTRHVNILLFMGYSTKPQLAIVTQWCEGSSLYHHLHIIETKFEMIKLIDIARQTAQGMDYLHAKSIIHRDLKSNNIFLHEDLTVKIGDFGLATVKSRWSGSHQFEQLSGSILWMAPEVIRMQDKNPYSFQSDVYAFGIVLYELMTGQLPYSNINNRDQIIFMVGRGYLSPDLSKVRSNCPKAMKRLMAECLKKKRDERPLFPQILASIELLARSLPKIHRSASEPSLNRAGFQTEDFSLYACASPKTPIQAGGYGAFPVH
Sequence of Btk (Q06187 whole entry): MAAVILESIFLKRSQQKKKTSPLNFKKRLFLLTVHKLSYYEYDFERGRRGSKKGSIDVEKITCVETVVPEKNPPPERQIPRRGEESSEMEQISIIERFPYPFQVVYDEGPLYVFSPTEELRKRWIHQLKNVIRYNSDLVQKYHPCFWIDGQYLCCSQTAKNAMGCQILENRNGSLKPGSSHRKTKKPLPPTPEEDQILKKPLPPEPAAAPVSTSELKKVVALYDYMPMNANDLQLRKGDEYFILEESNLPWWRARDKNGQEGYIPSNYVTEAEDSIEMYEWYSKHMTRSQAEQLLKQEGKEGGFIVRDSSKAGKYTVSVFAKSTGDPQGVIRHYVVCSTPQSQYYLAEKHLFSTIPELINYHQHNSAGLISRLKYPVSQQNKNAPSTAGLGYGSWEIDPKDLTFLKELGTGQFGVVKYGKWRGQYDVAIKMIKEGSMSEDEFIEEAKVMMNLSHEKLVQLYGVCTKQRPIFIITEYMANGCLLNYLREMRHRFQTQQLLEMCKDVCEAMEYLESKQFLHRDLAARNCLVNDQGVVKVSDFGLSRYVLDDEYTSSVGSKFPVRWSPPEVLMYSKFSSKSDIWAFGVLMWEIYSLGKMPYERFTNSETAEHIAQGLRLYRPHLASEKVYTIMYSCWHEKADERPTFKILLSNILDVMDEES
Sequence of B-Raf V600E (P15056 whole entry V600E): as the sequence (P15056 whole entry) above, with V600E counted along it
Sequence of Src (P12931 whole entry): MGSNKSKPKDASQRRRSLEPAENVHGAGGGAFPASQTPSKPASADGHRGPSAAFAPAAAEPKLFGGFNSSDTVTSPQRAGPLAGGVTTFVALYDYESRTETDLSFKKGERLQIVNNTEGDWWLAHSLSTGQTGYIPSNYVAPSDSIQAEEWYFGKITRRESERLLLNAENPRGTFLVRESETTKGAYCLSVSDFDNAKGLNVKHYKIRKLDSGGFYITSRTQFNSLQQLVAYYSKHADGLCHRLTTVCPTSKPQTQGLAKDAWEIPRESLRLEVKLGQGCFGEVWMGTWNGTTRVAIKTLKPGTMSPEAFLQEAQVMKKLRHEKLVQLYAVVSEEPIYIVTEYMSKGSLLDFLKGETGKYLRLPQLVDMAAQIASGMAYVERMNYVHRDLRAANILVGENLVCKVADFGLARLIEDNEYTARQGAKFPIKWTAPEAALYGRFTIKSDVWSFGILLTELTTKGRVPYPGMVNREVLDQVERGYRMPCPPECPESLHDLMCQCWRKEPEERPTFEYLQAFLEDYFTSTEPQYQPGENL

Cn1cc(-c2cnc3[nH]cc(C(=O)c4c(F)ccc(NS(=O)(=O)c5cccc(OC(F)F)c5)c4Cl)c3c2)cn1 [P-2099, N-{2-Chloro-4-fluoro-3-[5-(1-methyl-1H-pyrazol-4-yl)-1H-pyrrolo[2,3-b]pyridine-3-carbonyl]-phenyl}-3-difluoromethoxy-benzenesulfonamide]
not listed: [10] | [11] | [12]
≤ 10 µM: all other assays above

Cn1cc(-c2cnc3[nH]cc(C(=O)c4cc(NS(=O)(=O)c5ccc(F)cc5)ccc4F)c3c2)cn1 [P-2100, 4-Fluoro-N-{4-fluoro-3-[5-(1-methyl-1H-pyrazol-4-yl)-1H-pyrrolo[2,3-b]pyridine-3-carbonyl]-phenyl}-benzenesulfonamide]
≤ 10 µM: [2] | [3] | [4] | [5] | [6] | [10] | [8]

CCCS(=O)(=O)Nc1ccc(F)c(C(=O)c2c[nH]c3ncc(-c4ccc(C(=O)NCC)nc4)cc23)c1F [P-2151, 5-{3-[2,6-Difluoro-3-(propane-1-sulfonylamino)-benzoyl]-1H-pyrrolo[2,3-b]pyridin-5-yl}-pyridine-2-carboxylic acid ethylamide]
not listed: [3] | [7] | [9] | [12]
≤ 10 µM: all other assays above

CCCS(=O)(=O)Nc1ccc(F)c(C(=O)c2c[nH]c3ncc(-c4cnc(N(C)C)nc4)cc23)c1F [P-2196, Propane-1-sulfonic acid {3-[5-(2-dimethylamino-pyrimidin-5-yl)-1H-pyrrolo[2,3-b]pyridine-3-carbonyl]-2,4-difluoro-phenyl}-amide]
≤ 10 µM: [1] | [2] | [5] | [10] | [8] | [12] | [11]

CCCS(=O)(=O)Nc1ccc(F)c(C(=O)c2c[nH]c3ncc(-c4cnc(OC)nc4OC)cc23)c1F [P-2199, Propane-1-sulfonic acid {3-[5-(2,4-dimethoxy-pyrimidin-5-yl)-1H-pyrrolo[2,3-b]pyridine-3-carbonyl]-2,4-difluoro-phenyl}-amide]
not listed: [10] | [12]
≤ 10 µM: all other assays above

CCCS(=O)(=O)Nc1ccc(F)c(C(=O)c2c[nH]c3nccc(OC)c23)c1F [P-2210, Propane-1-sulfonic acid [2,4-difluoro-3-(4-methoxy-1H-pyrrolo[2,3-b]pyridine-3-carbonyl)-phenyl]-amide]
≤ 10 µM: [1] | [2] | [5] | [10] | [8] | [12] | [11]

CCCS(=O)(=O)Nc1ccc(F)c(C(=O)c2c[nH]c3ncc(-c4ccc(C)nc4)cc23)c1F [P-2213, Propane-1-sulfonic acid {2,4-difluoro-3-[5-(6-methyl-pyridin-3-yl)-1H-pyrrolo[2,3-b]pyridine-3-carbonyl]-phenyl}-amide]
not listed: [3] | [7] | [9] | [12]
≤ 10 µM: all other assays above

CCCS(=O)(=O)Nc1ccc(F)c(C(=O)c2c[nH]c3ncc(-c4ccc(OCCO)nc4)cc23)c1F [P-2215, Propane-1-sulfonic acid (2,4-difluoro-3-{5-[6-(2-hydroxy-ethoxy)-pyridin-3-yl]-1H-pyrrolo[2,3-b]pyridine-3-carbonyl}-phenyl)-amide]
not listed: [3] | [7] | [12]
≤ 10 µM: all other assays above

CCCS(=O)(=O)Nc1ccc(F)c(C(=O)c2c[nH]c3ncc(-c4ccc(OCCCN(CC)CC)nc4)cc23)c1F [P-2216, Propane-1-sulfonic acid (3-{5-[6-(3-diethylamino-propoxy)-pyridin-3-yl]-1H-pyrrolo[2,3-b]pyridine-3-carbonyl}-2,4-difluoro-phenyl)-amide]
not listed: [3] | [7] | [9] | [12]
≤ 10 µM: all other assays above

CC(C)CS(=O)(=O)Nc1ccc(F)c(C(=O)c2c[nH]c3ncc(-c4cnn(C)c4)cc23)c1F [P-2299, 2-Methyl-propane-1-sulfonic acid {2,4-difluoro-3-[5-(1-methyl-1H-pyrazol-4-yl)-1H-pyrrolo[2,3-b]pyridine-3-carbonyl]-phenyl}-amide]
not listed: [9] | [11] | [12]
≤ 10 µM: all other assays above

CCCCS(=O)(=O)Nc1ccc(F)c(C(=O)c2c[nH]c3ncc(-c4cnn(C)c4)cc23)c1Cl [P-2430, Butane-1-sulfonic acid {2-chloro-4-fluoro-3-[5-(1-methyl-1H-pyrazol-4-yl)-1H-pyrrolo[2,3-b]pyridine-3-carbonyl]-phenyl}-amide]
not listed: [3] | [10] | [12]
≤ 10 µM: all other assays above
